Measurements as given in patent US20040180916A1, “Treatment of pain with combinations of nalbuphine and other kappa-opioid receptor agonists and opioid receptor antagonists” (The Regents of the University of California, priority 2002, published 2004).
Where a name gives a salt, the structure may show the parent alone. Read-outs that look alike come from different tables or passages of the source.

Columns and labels:
postoperative pain [1] = conditions: intravenous; for analgesic response (change in VAS pain rating): nalbuphine hydrochloride salt 2.5 mg alone
Text: In this clinical trial 67 patients underwent standardized surgery by the same oral surgeon for removal of third molar teeth, including at least one bony impacted mandibular third molar. Prior to surgery, patients received intravenous diazepam, nitrous oxide, and a local anesthetic (mepivacaine without vasoconstrictor to obtain a nerve block of short duration). After surgery, each patient was randomly assigned to receive an injection of nalbuphine hydrochloride salt (Abbott Laboratories, Abbott Park, Ill.) 2.5 mg either alone or combined with naloxone hydrochloride salt (0.4 mg) in an open injection, double-blinded fashion, through an intravenous line.
Baseline pain intensity was defined as the last VAS pain rating before administration of the test drug. VAS pain ratings were recorded at 20 minute intervals beginning ten minutes after administration of the test drug. The duration of the experiment was two hours and fifty minutes, measured from the time of administration of the test drug. For each patient, the magnitude of the analgesic (or anti-analgesic) response was defined as the difference between the pain rating at each time point following test drug administration and the baseline VAS pain rating.

postoperative pain [2] = conditions: nalbuphine hydrochloride salt 2.5 mg alone; both sexes; intravenous
Experimental: In this clinical trial, 65 patients underwent standardized surgery by the same oral surgeon for removal of third molar teeth, including at least one bony impacted mandibular third molar. Prior to surgery, patients received intravenous diazepam, nitrous oxide, and a local anesthetic (mepivacaine without vasoconstrictor to obtain a nerve block of short duration). After surgery, each patient was randomly assigned to receive an injection of 2.5 mg of nalbuphine hydrochloride salt (Abbott Laboratories, Abbott Park, Ill.) either alone or combined with 0.2 mg naloxone hydrochloride salt in an open injection, double-blinded fashion, through an intravenous line.
Baseline pain intensity was defined as the last VAS pain rating before administration of the test drug. VAS pain ratings were recorded at 20 minute intervals beginning ten minutes after administration of the test drug. The duration of the experiment, measured from the time of administration of the test drug, was two hours and fifty minutes. For each patient, the magnitude of the analgesic (or anti-analgesic) response was defined as the difference between the pain rating at each time point following test drug administration and the baseline VAS pain rating.

Oc1ccc2c3c1O[C@H]1[C@@H](O)CC[C@@]4(O)[C@@H](C2)N(CC2CCC2)CC[C@]314 [nalbuphine hydrochloride salt, nalbuphine]
analgesic response (change in VAS pain rating) (postoperative pain [1]; FIG. 4a, women): induced brief analgesia | analgesic response (change in VAS pain rating) (postoperative pain [1]; FIG. 4b, men): failed to produce significant analgesia | anti-analgesia (postoperative pain [1]; women, nalbuphine hydrochloride salt 2.5 mg): apparently insufficient to produce anti-analgesia | analgesic effect (postoperative pain [2]): initial analgesic effect of administration of nalbuphine alone observed in both sexes
